This passage reports IC50 results from US12209081B2 (Katholieke Universiteit Leuven, priority 2020, dated 2025).

Broadly, the IC50 is the point on the concentration scale where inhibition reaches its midpoint. The low end stands for greater potency, the high end for weaker potency.

The test addresses mouse TRPM3α2 (mTRPM3) ion channel (Mus musculus (Mouse), UniProt J9SQF3). The experiment in a line: TRPM3 ion channel driven Ca2+ uptake, Fluo-4 AM assay, mTRPM3alpha2 overexpressing flip-in HEK293 cells stimulated with pregnenolone sulfate. Type of test: cell-based. The method in brief:
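Read-out is Ca2+ influx via Fluo-4 AM fluorescence at 485/535 nm, taken right after seeding ~2000 cells/well onto compound with 50 μM PS. Inhibition computed from RFU between vehicle-stimulated and positive-control-inhibitor wells; cells were mTRPM3α2-overexpressing flip-in HEK293.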

Where [1] appears, read: PS (50 μM) stimulated, cpd 001-199.
The mark [2] stands for this setting: PS (50 μM) stimulated, cpds. 400-499.
Setting [3] is: PS (50 μM) stimulated, cpds. 500-599.
Setting [4] is: PS (50 μM) stimulated, cpds. 608-666.
[5] abbreviates: PS (50 μM) stimulated, cpds. 667-751.

Sequence of mouse TRPM3α2 (mTRPM3) ion channel (J9SQF3 other isoform, or with tags, fused parts or gaps): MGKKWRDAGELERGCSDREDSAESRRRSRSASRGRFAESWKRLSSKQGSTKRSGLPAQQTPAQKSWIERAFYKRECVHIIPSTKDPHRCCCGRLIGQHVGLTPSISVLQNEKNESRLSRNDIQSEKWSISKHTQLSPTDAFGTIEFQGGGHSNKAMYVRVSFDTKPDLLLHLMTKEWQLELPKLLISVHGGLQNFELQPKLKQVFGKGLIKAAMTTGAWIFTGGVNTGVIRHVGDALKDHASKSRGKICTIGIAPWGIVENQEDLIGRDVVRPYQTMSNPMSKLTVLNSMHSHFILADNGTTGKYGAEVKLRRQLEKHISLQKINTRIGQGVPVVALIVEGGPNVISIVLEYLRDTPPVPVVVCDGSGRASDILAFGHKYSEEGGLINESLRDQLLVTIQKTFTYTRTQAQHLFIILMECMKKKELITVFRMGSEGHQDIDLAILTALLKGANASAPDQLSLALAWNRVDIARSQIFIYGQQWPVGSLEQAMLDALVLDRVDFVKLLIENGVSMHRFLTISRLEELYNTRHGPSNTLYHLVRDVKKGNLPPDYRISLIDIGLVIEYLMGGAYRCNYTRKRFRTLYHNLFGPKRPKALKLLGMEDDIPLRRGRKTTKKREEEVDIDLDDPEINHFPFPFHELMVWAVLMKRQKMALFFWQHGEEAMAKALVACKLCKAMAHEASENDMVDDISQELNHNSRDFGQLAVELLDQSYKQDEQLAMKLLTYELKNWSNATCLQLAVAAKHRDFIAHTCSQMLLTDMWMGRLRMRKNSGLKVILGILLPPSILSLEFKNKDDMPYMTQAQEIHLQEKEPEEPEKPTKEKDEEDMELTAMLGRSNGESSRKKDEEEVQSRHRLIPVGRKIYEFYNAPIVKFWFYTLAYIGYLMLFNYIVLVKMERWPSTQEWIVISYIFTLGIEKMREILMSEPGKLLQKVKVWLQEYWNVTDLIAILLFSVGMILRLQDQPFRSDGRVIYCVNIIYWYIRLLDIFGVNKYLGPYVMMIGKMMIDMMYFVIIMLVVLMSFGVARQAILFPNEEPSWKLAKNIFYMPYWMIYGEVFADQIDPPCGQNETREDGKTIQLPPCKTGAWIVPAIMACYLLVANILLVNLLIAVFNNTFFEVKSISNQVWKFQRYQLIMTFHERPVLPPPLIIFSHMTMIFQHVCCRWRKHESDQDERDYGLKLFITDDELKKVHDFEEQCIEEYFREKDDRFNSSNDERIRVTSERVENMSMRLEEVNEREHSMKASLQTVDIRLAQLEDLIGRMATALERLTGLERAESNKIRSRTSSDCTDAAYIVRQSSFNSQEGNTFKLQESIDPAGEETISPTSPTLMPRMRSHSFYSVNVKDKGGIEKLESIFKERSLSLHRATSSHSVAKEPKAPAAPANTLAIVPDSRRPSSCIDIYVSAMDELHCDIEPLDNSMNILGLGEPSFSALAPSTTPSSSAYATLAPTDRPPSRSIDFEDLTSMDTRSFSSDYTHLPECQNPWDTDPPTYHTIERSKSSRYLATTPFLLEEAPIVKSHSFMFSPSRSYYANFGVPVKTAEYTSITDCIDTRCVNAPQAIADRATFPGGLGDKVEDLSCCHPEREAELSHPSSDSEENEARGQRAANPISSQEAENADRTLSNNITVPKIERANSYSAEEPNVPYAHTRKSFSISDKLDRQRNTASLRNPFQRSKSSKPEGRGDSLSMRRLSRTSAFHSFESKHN

The molecule `Cc1oc2ccc(OCc3cccnc3C(F)(F)F)cc2c1C(=O)NC1CNCCC1(F)F` (single isomer, unassigned) [cpd 111-En 1] registered a 50% inhibitory concentration (IC50) under setting [1] of less than 1 µM.

For `Cc1oc2ccc(OCc3ccnn3C)cc2c1C(=O)NC(C)(C)C(N)=O` [compound 438, N-(1-amino-2-methyl-1-oxopropan-2-yl)-2-methyl-5-((1-methyl-1H-pyrazol-5-yl)methoxy)benzofuran-3-carboxamide], the IC50 under setting [2] was less than 1 µM. As to `COc1cccc(COc2ccc3oc(C)c(C(=O)NC4CCNCC4(F)F)c3c2)n1` (single isomer, unassigned) [cpd 570-En 1], under setting [3], the IC50 was less than 1 µM. In turn, `Cc1oc2ccc(OCc3cccnc3C(F)(F)F)cc2c1C(=O)NC1CNCC(F)(F)C1` (single isomer, unassigned) [cpd 125-En 1] registered an IC50 under setting [1] of less than 1 µM.

The molecule `Cc1ncsc1COc1ccc2oc(C)c(C(=O)NC3(C(N)=O)CCOCC3)c2c1` [compound 650, N-(4-carbamoyltetrahydro-2H-pyran-4-yl)-2-methyl-5-((4-methylthiazol-5-yl)methoxy)benzofuran-3-carboxamide] came in with a half-maximal inhibitory concentration (IC50) under setting [4] of less than 1 µM.

In turn, `Cc1ccc(COc2ccc3oc(C4CC4)c(C(=O)N[C@@H](CO)C(N)=O)c3c2)cn1` [compound 750, (S)-N-(1-Amino-3-hydroxy-1-oxopropan-2-yl)-2-cyclopropyl-5-((6-methylpyridin-3-yl)methoxy)benzofuran-3-carboxamide] displayed an IC50 under setting [5] of less than 1 µM. For the setting “PS 50 μM, cpds 300-399”, `Cc1ncsc1COc1ccc2oc(C)c(C(=O)N[C@H](C(N)=O)C(C)C)c2c1` [compound 304, (S)-N-(1-amino-3-methyl-1-oxobutan-2-yl)-2-methyl-5-((4-methylthiazol-5-yl)methoxy)benzofuran-3-carboxamide] returned an IC50 of less than 1 µM.

On to `Cc1ncc(COc2ccc3oc(C)c(C(=O)NC4CCNCC4(F)F)c3c2)s1` (single isomer, unassigned) [cpd 549-En 2], for which, under setting [3], the concentration for half-maximal inhibition (IC50) was in the range of 1 to 20 µM. `Cc1ncsc1COc1ccc2oc(C)c(C(=O)NCC3(C#N)CC3)c2c1` [compound 371, N-((1-cyanocyclopropyl)methyl)-2-methyl-5-((4-methylthiazol-5-yl)methoxy)benzofuran-3-carboxamide]: the IC50 (PS 50 μM, cpds 300-399) was less than 1 µM. The molecule `Cc1ncsc1COc1ccc2oc(C)c(C(=O)NC3CCN(CC(F)(F)F)C3)c2c1` (single isomer, unassigned) [116-En 1, 2-methyl-5-((4-methylthiazol-5-yl)methoxy)-N-(1-(2,2,2-trifluoroethyl)pyrrolidin-3-yl)benzofuran-3-carboxamide] returned an IC50 under setting [1] of less than 1 µM.

Under setting [1], `Cc1oc2c(F)cc(OCc3cccnc3C(F)(F)F)cc2c1C(=O)NC1CCNCC1(F)F` (single isomer, unassigned) [cpd 176-En 2, N-(3,3-difluoropiperidin-4-yl)-7-fluoro-2-methyl-5-((2-(trifluoro-methyl)pyridin-3-yl)methoxy)benzofuran-3-carboxamide] displayed a concentration for half-maximal inhibition (IC50) of less than 1 µM. For the molecule `Cc1oc2ccc(OCc3ccccn3)cc2c1C(=O)NC1(CO)CC1` [compound 419, N-(1-(hydroxymethyl)cyclopropyl)-2-methyl-5-(pyridin-2-ylmethoxy)benzofuran-3-carboxamide], under setting [2], the IC50 was less than 1 µM. `Cc1oc2ccc(OCc3cccc(=O)n3C)cc2c1C(=O)NC1CCNCC1(F)F` (single isomer, unassigned) [cpd 545-En 1] had an IC50 under setting [3] of 1 to 20 µM. With `Cc1ncsc1COc1ccc2oc(C)c(C(=O)NCC3(F)CCOCC3)c2c1` [compound 394, N-((4-fluorotetrahydro-2H-pyran-4-yl)methyl)-2-methyl-5-((4-methylthiazol-5-yl)methoxy)benzofuran-3-carboxamide], the IC50 (PS 50 μM, cpds 300-399) is less than 1 µM. On to `Cc1ncsc1COc1ccc2oc(C)c(C(=O)NC3(C(N)=O)COC3)c2c1` [compound 119, N-(3-carbamoyloxetan-3-yl)-2-methyl-5-((4-methylthiazol-5-yl)methoxy)benzofuran-3-carboxamide], for which the half-inhibitory concentration (IC50) under setting [1] was less than 1 µM. In the case of `Cc1cncc(COc2ccc3oc(C)c(C(=O)NC4CCNC4=O)c3c2)c1` (stereo not drawn) [compound 038, 2-methyl-5-((5-methylpyridin-3-yl)methoxy)-N-(2-oxopyrrolidin-3-yl)benzofuran-3-carboxamide], the IC50 under setting [1] is less than 1 µM. As to `CNC(=O)C1(NC(=O)c2c(C)oc3ccc(OCc4cnc(C)s4)cc23)CCC1` [compound 318, 2-methyl-N-(1-(methylcarbamoyl)cyclobutyl)-5-((2-methylthiazol-5-yl)methoxy)benzofuran-3-carboxamide], the IC50 (PS 50 μM, cpds 300-399) was less than 1 µM. In the case of `Cc1ncsc1COc1ccc2oc(C(F)F)c(C(=O)N[C@@H](CO)C(N)=O)c2c1` [compound 742, (S)-N-(1-amino-3-hydroxy-1-oxopropan-2-yl)-2-(difluoromethyl)-5-((4-methylthiazol-5-yl)methoxy)benzofuran-3-carboxamide], under setting [5], the IC50 was less than 1 µM. Under setting [1], `Cc1oc2c(C#N)cc(OCc3cccnc3C(F)(F)F)cc2c1C(=O)NC1CCNCC1(F)F` (single isomer, unassigned) [196-En 2, 7-cyano-N-(3,3-difluoropiperidin-4-yl)-2-methyl-5-((2-(trifluoro-methyl)pyridin-3-yl)methoxy)benzofuran-3-carboxamide] yielded a 50% inhibitory concentration (IC50) of 1 to 20 µM.

The molecule `COc1ncccc1COc1ccc2oc(C)c(C(=O)NC(C)(CO)CO)c2c1` [compound 431, N-(1,3-dihydroxy-2-methylpropan-2-yl)-5-((2-methoxypyridin-3-yl)methoxy)-2-methylbenzofuran-3-carboxamide] showed an IC50 under setting [2] of less than 1 µM. `Cc1ncc(COc2ccc3oc(C4CC4)c(C(=O)N[C@@H](CO)C(N)=O)c3c2)o1` [compound 751, (S)-N-(1-amino-3-hydroxy-1-oxopropan-2-yl)-2-cyclopropyl-5-((2-methyloxazol-5-yl)methoxy) benzofuran-3-carboxamide] yielded an IC50 under setting [5] of less than 1 µM. Molecule `Cc1oc2ccc(OCc3cccnn3)cc2c1C(=O)NC(C)(C)C(N)=O` [compound 441, N-(1-amino-2-methyl-1-oxopropan-2-yl)-2-methyl-5-(pyridazin-3-ylmethoxy)benzofuran-3-carboxamide] yielded an IC50 under setting [2] of less than 1 µM. The molecule `Cc1ncc(COc2ccc3oc(C)c(C(=O)NC4(CO)CCOC4)c3c2)s1` (single isomer, unassigned) [cpd 533-En 1] yielded an IC50 under setting [3] of less than 1 µM. With `Cc1oc2ccc(OCc3scnc3C(F)(F)F)cc2c1C(=O)N[C@@H](CO)C(N)=O` [compound 694, (S)-N-(1-Amino-3-hydroxy-1-oxopropan-2-yl)-2-methyl-5-((4-(trifluoromethyl)thiazol-5-yl)methoxy)benzofuran-3-carboxamide], the IC50 under setting [5] is less than 1 µM. For the molecule `Cc1cnc(COc2ccc3oc(C)c(C(=O)NC4(CO)CCOCC4)c3c2)s1` [compound 620, N-(4-(hydroxymethyl)tetrahydro-2H-pyran-4-yl)-2-methyl-5-((5-methylthiazol-2-yl)methoxy)benzofuran-3-carboxamide], under setting [4], the IC50 was less than 1 µM. On to `Cc1oc2ccc(OCc3cccnc3C(F)(F)F)cc2c1C(=O)NC1CC2(CNC2)C1` [compound 173, 2-methyl-N-(2-azaspiro[3,3]heptan-6-yl)-5-((2-(trifluoromethyl)pyridin-3-yl)methoxy)benzofuran-3-carboxamide], for which, under setting [1], the IC50 is less than 1 µM.

Turning to `Cc1oc2ccc(OCc3ccnn3C)cc2c1C(=O)NC1(C(N)=O)COC1` [compound 579, N-(3-carbamoyloxetan-3-yl)-2-methyl-5-((1-methyl-1H-pyrazol-5-yl)methoxy)benzofuran-3-carboxamide], the 50% inhibitory concentration (IC50) under setting [3] is less than 1 µM. Take `Cc1oc2ccc(OCc3cccnc3C(F)(F)F)cc2c1C(=O)NC1CCN(CC(F)(F)F)CC1` [compound 168, 2-methyl-N-(1-(2,2,2-trifluoroethyl)piperidin-4-yl)-5-((2-(trifluoromethyl)pyridin-3-yl)methoxy) -benzofuran-3-carboxamide]: under setting [1], the IC50 was less than 1 µM. For the molecule `Cc1oc2ccc(OCc3c(Cl)cnn3C)cc2c1C(=O)N[C@@H](CO)C(N)=O` [compound 670, (S)-N-(1-Amino-3-hydroxy-1-oxopropan-2-yl)-5-((4-chloro-1-methyl-1H-pyrazol-5-yl)methoxy) -2-methylbenzofuran-3-carboxamide], under setting [5], the IC50 is less than 1 µM. `Cc1ncsc1COc1ccc2oc(C)c(C(=O)NCC3(F)COC3)c2c1` [compound 385, N-((3-fluorooxetan-3-yl)methyl)-2-methyl-5-((4-methylthiazol-5-yl)methoxy)benzofuran-3-carboxamide] gave an IC50 (PS 50 μM, cpds 300-399) of less than 1 µM. Take `Cc1oc2ccc(OCc3cccnc3C(F)(F)F)cc2c1C(=O)NC1(CNCC(F)(F)F)CCC1` [compound 153, 2-methyl-N-(1-(((2,2,2-trifluoroethyl)amino)methyl)cyclobutyl)-5-((2-(trifluoromethyl)pyridin-3-yl)methoxy)benzofuran-3-carboxamide]: the IC50 under setting [1] is less than 1 µM. As to `NC(=O)[C@H](CO)NC(=O)c1c(C(F)F)oc2ccc(OCc3ccccn3)cc12` [compound 744], the concentration for half-maximal inhibition (IC50) under setting [5] was less than 1 µM. As to `Cc1oc2ccc(OCc3cccnc3C(F)(F)F)cc2c1C(=O)NC1CCNCC1(F)F` (single isomer, unassigned) [cpd 539-En 2], the concentration for half-maximal inhibition (IC50) under setting [3] was less than 1 µM. In turn, `Cc1oc2ccc(OCc3cccnc3C(F)(F)F)cc2c1C(=O)NC1CC2(COC2)C1` [compound 167, 2-methyl-N-(2-oxaspiro[3.3]heptan-6-yl)-5-((2-(trifluoromethyl)pyridin-3-yl)methoxy)benzofuran-3-carboxamide] came in with an IC50 under setting [1] of less than 1 µM. Under setting [2], `Cc1ncsc1COc1ccc2oc(C)c(C(=O)NCC(F)F)c2c1` [compound 498, N-(2,2-difluoroethyl)-2-methyl-5-((4-methylthiazol-5-yl)methoxy)benzofuran-3-carboxamide] had an IC50 of less than 1 µM. In turn, `Cc1cc(COc2ccc3oc(C)c(C(=O)NC4CCNCC4(F)F)c3c2)no1` (single isomer, unassigned) [cpd 553-En 1] returned an IC50 under setting [3] of less than 1 µM.
